Source: US5182367A, “5-lipoxygenase activating protein” (priority 1990, dated 1993)
pIC50: −log10 of the molar value.

How the values were obtained:
[1] = biological target: T1, 18kD protein (FLAP) (Homo sapiens, UniProt P20292); experiment: photoaffinity labelling of the 18kD protein with 125I-L-669,083; assay type: binding; conditions: for inhibition of photoaffinity labelling of the 18kD protein: 125I-L-669,083 probe, result in words
T1 construct: Incubation of ^125 I-L-669,083 with neutrophil extracts followed by irradiation with ultraviolet light; from tissue; host or cells: neutrophil extracts / human leukocyte membranes (endogenous protein)
T1 sequence (P20292 1-161): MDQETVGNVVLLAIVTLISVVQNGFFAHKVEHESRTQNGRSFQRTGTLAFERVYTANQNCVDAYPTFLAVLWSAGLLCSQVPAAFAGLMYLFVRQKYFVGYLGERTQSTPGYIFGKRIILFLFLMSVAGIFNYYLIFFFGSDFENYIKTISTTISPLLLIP
Text: The cellular target of MK-886 was identified by its specific labelling with an I^125 radio-labelled photoaffinity probe (^125 I-L-669,083) and by its retention on agarose gels to which analogues of MK-886 had been bound. […] This protein co-migrated on SDS-polyacrylamide gels with the photoaffinity-labelled protein. The 18kD protein comprised a minor portion of the […]-centrifugation pellet protein and was essentially absent from other cellular fractions.
A polyclonal rabbit antibody was prepared to the N-terminal 39 amino acids of the 18kD protein. The peptide immunogen was prepared by fusion of the DNA sequence coding for the peptide to the N-terminus of Che Y protein, and its expression in and purification from E. coli (Gan, Z. R., Gene 79, 159-166 (1989)). […] When human leukocyte membranes labelled with the ^125 I-L-669,083 photoaffinity probe were immunoprecipitated with the antipeptide antibody, a single labelled protein of Mr 18,000 was observed which was absent in membranes labelled in the presence of competing MK-886.

[2] = test system: leukotriene biosynthesis; experiment: leukotriene biosynthesis / production (cells not specified); assay type: cell-based; conditions: result in words, cells not given
[3] = biological target: T2, 18kD protein (FLAP) (Rattus norvegicus, UniProt P20291); experiment: elution of the 18kD protein from MK-886 analogue affinity columns; assay type: binding, rat and human; conditions: solubilized neutrophil membranes, result in words
T2 sequence (P20291 1-161): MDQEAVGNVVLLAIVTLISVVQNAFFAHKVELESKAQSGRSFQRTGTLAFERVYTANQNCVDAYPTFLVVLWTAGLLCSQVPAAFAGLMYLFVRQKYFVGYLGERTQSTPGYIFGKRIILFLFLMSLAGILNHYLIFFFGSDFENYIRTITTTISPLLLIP
Description: Rat peritoneal neutrophils (Ham, E. A. et al. Proc. Natn. Acad. Sci. USA 80, 4349-4353 (1983)) and human peripheral neutrophils (Boyum, A. Scand. J. Clin. Lab. Invest. (suppl. 97) 21, 77-89 (1968)) at 10^8 cells/ml were sonicated in 50 mM Tris-HCl buffer, pH 7.4, 140 mM NaCl, 2 mM EDTA, 1 mM DTT (dithiotreitol), 10% glycerol (homogenization buffer), together with the protease inhibitors 1 mM phenylmethylsulphonyl fluoride, […], and 10 mM furyl saccharine. After removal of 1000 g and 10,000 g-centrifugation pellets, the 100,000 g pellet was resuspended (3 mg/ml) in the homogenization buffer.
To purify FLAP, the microsome suspension was solubilized on ice for 30 minutes in 50 mM Tris-HCl buffer, pH 7.4, with 140 mM NaCl, 0.5 mM DTT, 5% glycerol and 1% CHAPS detergent (3-[(3-cholamidopropyl)-dimethylammonio]-1-propanesulfonate). After centrifugation for 10 minutes at 30,000 g, the supernatant was applied to 3 ml columns (6×10^9 cell equivalents per column) containing the affinity gel which was prepared by coupling MK-886 in THF (tetrahydrofuran) to pre-activated Affi-Gel 10, capping with ethanolamine,and washing with isopropanol. The columns were washed with […] solubilization buffer for 16 hours at 5° C. and eluted for 1 hour with four column volumes of buffer containing 100 μM MK-886.

[4] = test system: leukotriene synthesis in human leukocytes; experiment: inhibition of leukotriene synthesis in human leukocytes; assay type: cell-based; conditions: Leukocyte; human leukocytes at similar protein concentrations
[5] = test system: osteosarcoma 143 cell line expressing 5-LO and FLAP; experiment: A23187-stimulated LT synthesis in the 5-LO/FLAP cell line; assay type: cell-based, human
Description: (§1) When the parental osteosarcoma 143 cells or the cells expressing 5-LO or FLAP alone were treated with the Ca^2+ ionophore A23187, no arachidonic acid metabolites were detected. […] A23187-treated rat neutrophils produced these products, as well as 5-HETE and the LTB4 metabolites 20-hydroxy LTB4 and 20-carboxy LTB4. The 5-LO/FLAP cell line produced only 14% of the neutrophil level of LTB4 (0.15 nmol/mg protein versus 1.1 nmol/mg protein), while it produced 41% as much of the LTA4 hydrolysis products (0.064 nmol 6-trans LTB4 and 0.059 nmol 6-trans-12-epi LTB4 /mg protein versus 0.18 nmol 6-trans LTB4 and 0.12 nmol 6-trans-12-epi LTB4 /mg protein).
(§2) Normal rat peritoneal neutrophils were prepared as described by Ham, E. A. et al. (1983, supra). Osteosarcoma 143 cell lines expressing 5-LO were isolated by the method of Rouzer, C. A. et al., J. Biol. Chem. 263, 10135-10140 (1988). The expression vector used contains the CMV immediate early promoter which drives the expression of the 5-LO gene, a hygromycin resistance gene as a selectable marker, and the EBV origin of replication (Rouzer et al., supra). An EcoRI fragment derived from the RBL-1 cDNA clone containing the cDNA insert for rat FLAP was cloned into the EcoRI site of the vector pSVLneo (Dixon, R. A. F. et al., Nature 326, 73-79 (1987)). […]

[6] = test system: rat peritoneal neutrophils; experiment: A23187-stimulated LT synthesis in neutrophils; assay type: cell-based
Description: as §1, §2

Compound | inhibition of photoaffinity labelling of the 18kD protein [1] | elution of the 18kD protein from affinity columns/gels [3] | inhibition of leukotriene biosynthesis / production [2] | pIC50 [1] | pIC50 [4] | LT synthesis blocked [5] | LT synthesis blocked [6]
CN1CCN(CCCN2c3ccccc3Sc3ccc(C(F)(F)F)cc32)CC1 [trifluoroperazine] | nor inhibited photoaffinity labelling | – | inhibitory effects on leukotriene production | – | – | – | –
CC(C)c1ccc2c(c1)c(SC(C)(C)C)c(CC(C)(C)C(=O)O)n2Cc1ccc(Cl)cc1 [MK-886, 3-[1-(4-chlorobenzyl)-3-t-butylthio-5-isopropylindol-2-yl]-2,2-dimethylpropanoic acid] | – | eluted by MK-886 | – | 7.10 | 7.00 | blocked LT synthesis | blocked LT synthesis
O=c1ccc2nc3ccccc3sc-2c1Cl [L-615,919, 4-chloro-3H-phenothiazin-3-one] | – | – | – | – | – | blocked LT synthesis | blocked LT synthesis
Clc1ccc(C(c2ccc(Cl)cc2)n2cc[n+](CC(OCc3ccc(Cl)cc3Cl)c3ccc(Cl)cc3Cl)c2)cc1 (stereo not drawn) [calmidazolium] | nor inhibited photoaffinity labelling | neither eluted the 18kD protein | inhibitory effects on leukotriene production | – | – | – | –
CC(Cc1ccc(O)c(O)c1)C(C)Cc1ccc(O)c(O)c1 (stereo not drawn) [nordihydroguairaretic acid] | nor inhibited photoaffinity labelling | neither eluted the 18kD protein | inhibitory effects on leukotriene production | – | – | – | –

Further lines, with some results ahead:

inhibition of photoaffinity labelling of the 18kD protein [1] | elution of the 18kD protein from affinity columns/gels [3] | Compound | inhibition of leukotriene biosynthesis / production [2] | pIC50 [1] | pIC50 [4] | LT synthesis blocked [5] | LT synthesis blocked [6]
did not inhibit photoaffinity labelling | nor did they elute this protein | COc1ccc2c(c1)c(C(C)C(=O)O)c(C)n2Cc1ccc(Cl)cc1 [L-583,916, 2-(1-p-chlorobenzyl-5-methoxy-2-methylindol-3-yl)propionic acid] | do not inhibit leukotriene biosynthesis | – | – | – | –
nor inhibited photoaffinity labelling | neither eluted the 18kD protein | COc1ccc2nc3cc(OC)c(=O)c(Br)c-3sc2c1 [L-651,392] | inhibitory effects on leukotriene production | – | – | – | –
